{
  "source": "patent US5846516A",
  "about": "“Perfluoroalkylated amphiphilic phosphorus compounds: preparation and biomedical applications” (Alliance Pharmaceutial Corp., priority 1992, dated 1998)",
  "key": {"[1]": {"assay": "Surface activity of aqueous solutions: surface (γs) and interfacial (γi) tensions", "type": "physicochemical", "conditions": "20° C., ±0.3 mNm^-1", "source_text": "The compounds described in this invention are very efficient surface agents, greatly lowering the surface (γs) and interfacial (γi) tensions between water and a fluorocarbon when added to water. […], γs goes from 73 (pure water) to 19.7-33.8 mNm^-1, and γi [water/perfluorodecalin (FDC) or perfluorooctyl bromide (PFOB) ] goes from 56 and 51 (in the absence of surfactant) to 5.1-8.9 mNm^-1 and 4.7-10.5 mNm^-1 respectively, as illustrated by the examples assembled in the table below. These compounds are also characterized by low values of critical micellar concentration: (CMC:from 1.10^-6 to 1.7.10^-3 M).\n(§1) Surface Activity Data of Aqueous Solutions"}, "[2]": {"assay": "Critical micellar concentration (CMC)", "type": "physicochemical", "conditions": "aqueous solutions, 20° C.", "source_text": "The compounds described in this invention are very efficient surface agents, greatly lowering the surface (γs) and interfacial (γi) tensions between water and a fluorocarbon when added to water. Thus at 1 g/L in water, γs goes from 73 (pure water) to 19.7-33.8 mNm^-1, and γi [water/perfluorodecalin (FDC) or perfluorooctyl bromide (PFOB) ] goes from 56 and 51 (in the absence of surfactant) to 5.1-8.9 mNm^-1 and 4.7-10.5 mNm^-1 respectively, as illustrated by the examples assembled in the table below. These compounds are also characterized by low values of critical micellar concentration: (CMC:from 1.10^-6 to 1.7.10^-3 M).\nas §1"}, "mice": {"test_system": "mice", "assay": "Toxicity in mice after intravenous injection (LD50, survival)", "type": "in vivo", "conditions": "for Toxicity in mice, Survival: i.v.", "description": "(§2) Compound 22 is non-hemolytic at a 50 g/L concentration, and its LD50 is higher than 2000 mg/kg in intravenous injection into mice. […] Furthermore, these derivatives show a higher i.v. tolerance than the single-chain compounds disclosed in WO 90/15807 C (25 ≤LD50 ≤125 mg/kg bw)."}, "human red blood cells": {"test_system": "human red blood cells", "assay": "Hemolysis of red blood cells", "type": "cell-based", "description": "as §2\n(§3) *solution added to an equal volume of a suspension, at 1% concentration o\n(§4) washed red blood cells in saline."}, "[3]": {"assay": "Ageing of sonicated perfluorodecalin (FDC 50% w/v) emulsions at 40° C., average particle size", "type": "physicochemical", "conditions": "FIG. 5; 50% w/v PFD sterilized emulsions, 3% surfactant", "description": "(§5) The products described in this invention, used as surfactants or co-surfactants, allow the preparation and stabilization of fluorocarbon emulsions. The emulsions were prepared by sonification (BRANSON B30 sonicator) (for 50% w/v of fluorocarbon) or by high-pressure microfluidization ((MICROFLUIDICS M 110)) (for more concentrated fluorocarbon emulsions). The ageing of these emulsions at 40° C. (accelerated ageing conditions) was followed by measuring the average size of the particles by a photosedimentation method (HORIBA CAPA 500) and compared with reference emulsions prepared with natural egg-yolk lecithins or poloxamers, for example Pluronic F-68.\nTo prepare 12 mL of an emulsion of FDC (50% w/v) with 3% w/v of 7b, the surfactant (360 mg) was first sonicated in a rosette cell at 0° C., in 8.55 mL of water. Next, the FDC (6 g) was added and the whole is sonicated, until optimal average particle size and size distribution are obtained. The emulsion was then divided into aliquots, stocked under inert atmosphere, sterilized for 8 min at 121° C. in an autoclave, then stored at 40° C. and monitored over time.\nThe same process but with a mixture of surfactants composed of 120 mg of 7b and 240 mg of natural egg-yolk lecithins (EYP) gave FDC emulsion with the following average particle sizes: 0.15 μm on preparation, 0.21 μm after sterilization and 0.32 μm after 30 days at 40° C. […]"}, "[4]": {"assay": "Dispersibility in water at 25° C."}, "[5]": {"assay": "Hemolysis of red blood cells", "type": "cell-based, human", "conditions": "human, read-out: Hemolysis, % hem.", "description": "as §2, §3, §4"}, "[6]": {"assay": "Growth and viability of Namalva cell cultures", "type": "cell-based", "conditions": "human; for activity: namalva cells; for viability: Namalva cells"}, "[7]": {"type": "physicochemical", "conditions": "90% w/v PFOB", "description": "as §5\nTo prepare 40 mL of a 90% w/v PFOB emulsion, surfactant 7b (400 mg) was first dispersed in 19.6 mL of a phosphate buffer with an Ultra Turrax. PFOB (36 g) was then added slowly and the whole was mixed for 10 min at 24000 revolutions/min. The resulting pre-emulsion was transferred into a microfluidizer and emulsified for 1 min at 800-1000 bar.\nThis emulsion was prepared as for example 28 with 200 mg of 7b and 1.4 g of EYP for 35 g of PFOB."}, "[8]": {"assay": "Toxicity in mice after intravenous injection (LD50, survival)", "type": "in vivo", "conditions": "mouse, in vivo; intravenous injection into mice", "description": "as §2"}},
  "note": "Where two headings read alike, the source gives them in different places.",
  "data": [
    {"compound": "[2-(F-octyl)ethyl] bis [polyethylene glycol methyl ether] phosphate triester 20, n=7 [Compound 20]", "values": [
      {"measurement": "γi /FDC (interfacial tension water/perfluorodecalin)", "setting": "[1]; 0.1 g/L (0.083 mM) in water", "result": 13.1, "unit": "mNm^-1"},
      {"measurement": "γi /PFOB (interfacial tension water/perfluorooctyl bromide)", "setting": "[1]; 0.1 g/L (0.083 mM) in water", "result": 9.2, "unit": "mNm^-1"},
      {"measurement": "γs (surface tension)", "setting": "[1]; 0.1 g/L (0.083 mM) in water", "result": 33.8, "unit": "mNm^-1"},
      {"measurement": "CMC", "setting": "[2]", "result": 0.025, "unit": "mM"},
      {"measurement": "Dispersibility at 25° C., g/L in water", "result": "> 100", "unit": "g/L"}
    ]},
    {"compound": "[5-(F-octyl)pentyl] bis [polyethylene glycol methyl ether] phosphate triester 21, n=7 [Compound 21]", "values": [
      {"measurement": "γi /FDC (interfacial tension water/perfluorodecalin)", "setting": "[1]; 0.01 g/L (0.008 mM) in water", "result": 9.6, "unit": "mNm^-1"},
      {"measurement": "γi /PFOB (interfacial tension water/perfluorooctyl bromide)", "setting": "[1]; 0.01 g/L (0.008 mM) in water", "result": 7.5, "unit": "mNm^-1"},
      {"measurement": "γs (surface tension)", "setting": "[1]; 0.01 g/L (0.008 mM) in water", "result": 29.6, "unit": "mNm^-1"},
      {"measurement": "CMC", "setting": "[2]", "result": 0.001, "unit": "mM"},
      {"measurement": "Toxicity in mice, Survival", "setting": "mice; dose 500 (mg/kg)", "result": "10/10"},
      {"measurement": "Toxicity in mice, Survival", "setting": "mice; dose 1000 (mg/kg)", "result": "3/10"},
      {"measurement": "Dispersibility at 25° C., g/L in water", "result": "> 100", "unit": "g/L"}
    ]},
    {"compound": "[5-(F-octyl)pentyl] bis [polyethylene glycol methyl ether] phosphate triester 22, n=16 [Compound 22]", "values": [
      {"measurement": "hemolytic activity (in words)", "setting": "human red blood cells; 50 g/L", "result": "non-hemolytic"},
      {"measurement": "Toxicity in mice, Survival", "setting": "mice; dose 2000 (mg/kg)", "result": "10/10"},
      {"measurement": "LD50", "setting": "mice; intravenous injection into mice", "result": "higher than 2000 mg/kg"},
      {"measurement": "in vivo (i.v.) tolerance (in words)", "setting": "mice; intravenous, mice", "result": "in vivo tolerance increases from 21 to 22"}
    ]},
    {"compound": "O=P(O)(OCCC(F)(F)C(F)(F)C(F)(F)C(F)(F)C(F)(F)C(F)(F)C(F)(F)C(F)(F)F)O[C@H]1[C@H](O)[C@@H](CO)OC(O)[C@@H]1O", "note": "(stereo partly drawn) [Compound 8b, [2-(F-octyl)ethyl] (3-D-glucosyl)(sodium) phosphate]", "values": [
      {"measurement": "γi /FDC (interfacial tension water/perfluorodecalin)", "setting": "[1]; 1 g/L in water", "result": 5.6, "unit": "mNm^-1"},
      {"measurement": "γi /PFOB (interfacial tension water/perfluorooctyl bromide)", "setting": "[1]; 1 g/L in water", "result": 8.3, "unit": "mNm^-1"},
      {"measurement": "γs (surface tension)", "setting": "[1]; 1 g/L in water", "result": 27.5, "unit": "mNm^-1"},
      {"measurement": "ageing at 40° C. of perfluorodecalin emulsions (in words)", "setting": "[3]", "result": "superimposable"},
      {"measurement": "CMC", "setting": "[2]", "result": 1.68, "unit": "mM"},
      {"measurement": "solubility", "setting": "[4]", "result": 250, "unit": "mg/mL"}
    ]},
    {"compound": "O=P(O)(OCCC(F)(F)C(F)(F)C(F)(F)C(F)(F)C(F)(F)C(F)(F)C(F)(F)C(F)(F)F)OC[C@H]1OC(O)[C@H](O)[C@@H](O)[C@@H]1O", "note": "(stereo partly drawn) [Compound 7b, [2-(F-octyl)ethyl](6-D-glucosyl)(sodium)phosphate]", "values": [
      {"measurement": "ageing at 40° C. of perfluorodecalin emulsions (in words)", "setting": "[3]", "result": "superimposable"},
      {"measurement": "hemolysis", "setting": "[5]; 30 g/L, dispersed in a 20 g/L Pluronic F68 solution, added to an equal volume of 1% washed red blood cells in saline", "result": 0, "unit": "%"},
      {"measurement": "hemolytic effect (in words)", "setting": "human red blood cells; dispersion at 30 g/L in 20 g/L Pluronic F-68", "result": "no hemolytic effect"},
      {"measurement": "Toxicity in mice, Survival", "setting": "mice; dose 125 (mg/kg)", "result": "10/10"},
      {"measurement": "activity", "setting": "[6]; 1 g/L", "result": 76, "unit": "%"},
      {"measurement": "viability", "setting": "[6]; 1 g/L", "result": 104, "unit": "%"},
      {"measurement": "stability of PFOB emulsion vs. EYP emulsion (in words)", "setting": "[7]; FIG. 6, 1% w/v 7b vs 4% EYP, 40° C.", "result": "more stable than an emulsion containing 4% of EYP"},
      {"measurement": "co-surfactant effect with EYP on particle size and stabilization (in words)", "setting": "[7]; FIG. 7, 1/8th of 4% EYP replaced by 7b", "result": "significantly reduces the average particle size and causes strong stabilization"}
    ]},
    {"compound": "O=P(O)(OCCC(F)(F)C(F)(F)C(F)(F)C(F)(F)C(F)(F)C(F)(F)F)OC[C@H]1OC(O)[C@H](O)[C@@H](O)[C@@H]1O", "note": "(stereo partly drawn) [Compound 7a, [2-(F-hexyl)ethyl](6-D-glucosyl)(sodium)phosphate]", "values": [
      {"measurement": "γi /FDC (interfacial tension water/perfluorodecalin)", "setting": "[1]; 1 g/L in water", "result": 5.6, "unit": "mNm^-1"},
      {"measurement": "γi /PFOB (interfacial tension water/perfluorooctyl bromide)", "setting": "[1]; 1 g/L in water", "result": 4.7, "unit": "mNm^-1"},
      {"measurement": "γs (surface tension)", "setting": "[1]; 1 g/L in water", "result": 19.7, "unit": "mNm^-1"},
      {"measurement": "CMC", "setting": "[2]", "result": 1.55, "unit": "mM"},
      {"measurement": "hemolysis", "setting": "[5]; 100 g/L, solution added to an equal volume of 1% washed red blood cells in saline", "result": 0, "unit": "%"},
      {"measurement": "hemolytic activity (in words)", "setting": "human red blood cells; even at 100 g/L", "result": "no hemolytic activity"},
      {"measurement": "LD50", "setting": "[8]", "result": "~750", "unit": "mg/kg"},
      {"measurement": "Toxicity in mice, Survival", "setting": "mice; dose 750 (mg/kg)", "result": "4/10"},
      {"measurement": "activity", "setting": "[6]; 0.1 g/L", "result": 82, "unit": "%"},
      {"measurement": "activity", "setting": "[6]; 1 g/L", "result": 51, "unit": "%"},
      {"measurement": "viability", "setting": "[6]; 1 g/L", "result": 97, "unit": "%"},
      {"measurement": "solubility", "setting": "[4]", "result": 350, "unit": "mg/mL"}
    ]}
  ]
}
